How the values were obtained:
Assay in all cases: relative viability (nuclei count vs DMSO), 5 days (fraction); higher = more cells survive
AGI-6780 + Luminespib = compound: O=C(Nc1cccc(C(F)(F)F)c1)Nc1cc(S(=O)(=O)NC2CC2)ccc1-c1ccsc1 [AGI-6780] + CCNC(=O)c1noc(-c2cc(C(C)C)c(O)cc2O)c1-c1ccc(CN2CCOCC2)cc1 [Luminespib] (partner 0.01 µM)
Summary of the method: (§1)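 Lung cancer cell lines in 1536-well plates got either a single drug or a fixed anchor-drug dose together with five library-drug doses (not always all listed) in √10 steps, by pin tool, on the day after seeding. Nuclei were counted after 5 days, and relative viability is the treated-to-vehicle ratio of nuclei counts. Values are medians of duplicate plates.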

AGI-6780 + OSI-027 = compound: O=C(Nc1cccc(C(F)(F)F)c1)Nc1cc(S(=O)(=O)NC2CC2)ccc1-c1ccsc1 [AGI-6780] + COc1cccc2cc(-c3nc([C@H]4CC[C@H](C(=O)O)CC4)n4ncnc(N)c34)[nH]c12 [OSI-027] (partner 0.5 µM)
Summary of the method: as §1

AGI-6780 + Palbociclib = compound: O=C(Nc1cccc(C(F)(F)F)c1)Nc1cc(S(=O)(=O)NC2CC2)ccc1-c1ccsc1 [AGI-6780] + CC(=O)c1c(C)c2cnc(Nc3ccc(N4CCNCC4)cn3)nc2n(C2CCCC2)c1=O [Palbociclib] (partner 0.5 µM)
Summary of the method: as §1

AGI-6780 + Pictilisib = compound: O=C(Nc1cccc(C(F)(F)F)c1)Nc1cc(S(=O)(=O)NC2CC2)ccc1-c1ccsc1 [AGI-6780] + CS(=O)(=O)N1CCN(Cc2cc3nc(-c4cccc5[nH]ncc45)nc(N4CCOCC4)c3s2)CC1 [Pictilisib] (partner 1 µM)
Summary of the method: as §1

Row | Cell Line | relative viability (AGI-6780 + Luminespib; first compound 0.08 µM) | relative viability (AGI-6780 + Luminespib; first compound 0.253 µM) | relative viability (AGI-6780 + Luminespib; first compound 0.8 µM) | relative viability (AGI-6780 + Luminespib; first compound 2.53 µM) | relative viability (AGI-6780 + Luminespib; first compound 8 µM) | relative viability (AGI-6780 + OSI-027; first compound 0.08 µM) | relative viability (AGI-6780 + OSI-027; first compound 0.253 µM) | relative viability (AGI-6780 + OSI-027; first compound 0.8 µM) | relative viability (AGI-6780 + OSI-027; first compound 2.53 µM) | relative viability (AGI-6780 + OSI-027; first compound 8 µM) | relative viability (AGI-6780 + Palbociclib; first compound 0.08 µM) | relative viability (AGI-6780 + Palbociclib; first compound 0.253 µM) | relative viability (AGI-6780 + Palbociclib; first compound 0.8 µM) | relative viability (AGI-6780 + Palbociclib; first compound 2.53 µM) | relative viability (AGI-6780 + Palbociclib; first compound 8 µM) | relative viability (AGI-6780 + Pictilisib; first compound 0.08 µM) | relative viability (AGI-6780 + Pictilisib; first compound 0.253 µM) | relative viability (AGI-6780 + Pictilisib; first compound 0.8 µM) | relative viability (AGI-6780 + Pictilisib; first compound 8 µM) | relative viability (AGI-6780 + Pictilisib; first compound 2.53 µM)
1 | NCI-H1395 | 1.02 | 0.78 | 0.73 | 0.646 | 0.615 | 0.632 | 0.846 | 0.674 | 0.53 | 0.662 | 0.629 | 0.603 | 0.616 | 0.572 | 0.656 | 0.638 | 0.626 | 0.574 | 0.65 | –
2 | NCI-H1355 | 0.75 | 0.791 | 0.686 | 0.408 | 0.624 | 0.444 | 0.456 | 0.422 | 0.303 | 0.401 | 0.432 | 0.409 | 0.408 | 0.354 | 0.342 | 0.492 | 0.503 | 0.5 | 0.437 | 0.326
3 | HOP-62 | 0.963 | 0.983 | 0.925 | 1 | 0.95 | 0.886 | 0.906 | 0.884 | 0.715 | 1.01 | 0.375 | 0.47 | 0.516 | 0.467 | 0.543 | 0.815 | 0.928 | 0.88 | 0.786 | 0.651
4 | NCI-H23 | – | 0.202 | 0.231 | – | 0.205 | 0.705 | 0.623 | 0.747 | 0.346 | 0.672 | 0.437 | 0.528 | 0.457 | 0.394 | 0.541 | 0.614 | 0.571 | 0.624 | 0.609 | 0.437
5 | NCI-H2170 | 0.603 | 0.729 | 0.682 | 0.403 | 0.719 | 0.694 | 0.762 | 0.768 | 0.596 | 0.733 | 0.393 | 0.421 | 0.43 | – | 0.376 | 0.348 | 0.358 | 0.328 | 0.303 | –
6 | EPLC-272H | – | 0.359 | 0.267 | 0.166 | 0.244 | – | 0.282 | 0.247 | 0.245 | 0.293 | 0.318 | 0.356 | 0.318 | 0.337 | 0.329 | 0.39 | 0.33 | 0.257 | 0.318 | 0.344
7 | NCI-H2347 | 0.456 | 0.659 | 0.405 | 0.411 | 0.403 | 0.403 | 0.491 | 0.333 | 0.378 | 0.507 | 0.451 | 0.469 | 0.413 | 0.385 | 0.481 | 0.747 | 0.648 | 0.591 | 0.897 | 0.553
8 | SW 1573 | 0.462 | 0.398 | 0.216 | 0.216 | 0.287 | 0.685 | 0.656 | 0.801 | – | 0.562 | 0.399 | 0.332 | 0.479 | – | 0.37 | 0.506 | 0.518 | 0.514 | 0.543 | 0.374
9 | NCI-H358 | 0.37 | 0.255 | 0.424 | 0.204 | 0.439 | 0.846 | 0.753 | 0.778 | 0.467 | 0.79 | 0.129 | 0.131 | 0.119 | 0.138 | 0.154 | 0.355 | 0.38 | 0.355 | 0.336 | 0.289
10 | LCLC-103H | 1.07 | 0.896 | 0.986 | 0.971 | 0.963 | 0.554 | 0.518 | 0.45 | 0.38 | 0.491 | 0.487 | 0.476 | 0.526 | 0.445 | 0.463 | 0.582 | 0.681 | 0.516 | 0.663 | 0.457
11 | NCI-H3122 | 0.0953 | 0.0902 | 0.113 | 0.0851 | 0.0997 | 0.998 | 0.913 | 1.08 | 0.727 | 1.01 | 0.217 | 0.148 | 0.172 | 0.178 | 0.217 | 0.584 | 0.563 | 0.625 | 0.62 | 0.548
12 | COR-L 105 | 0.81 | 0.654 | 0.725 | 0.618 | 0.535 | 0.783 | 0.669 | 0.719 | 0.582 | 0.72 | 0.395 | 0.301 | 0.417 | 0.371 | 0.37 | 0.482 | 0.393 | 0.463 | 0.39 | 0.463
13 | NCI-H1792 | 0.52 | 0.354 | 0.371 | 0.443 | 0.366 | – | 0.71 | 0.704 | 0.663 | 0.643 | – | 0.574 | 0.668 | 0.66 | 0.615 | 0.302 | 0.279 | 0.281 | 0.242 | 0.245
14 | NCI-H2087 | 0.203 | 0.141 | 0.181 | 0.155 | 0.175 | 0.866 | 0.564 | 0.608 | 0.405 | 0.626 | 0.244 | 0.265 | 0.221 | 0.25 | 0.245 | 0.787 | 0.914 | 0.879 | 0.773 | 0.644
15 | LC-2-ad | 1 | 0.915 | 1.11 | 1.05 | 0.921 | 0.829 | 0.875 | 0.874 | 0.638 | 0.794 | 0.536 | 0.525 | 0.524 | 0.526 | 0.463 | 0.598 | 0.726 | 0.532 | 0.456 | 0.381
16 | HARA | 0.787 | 0.594 | 0.177 | 0.944 | 0.93 | 0.573 | 0.594 | 0.339 | 0.197 | 0.514 | 0.235 | 0.271 | 0.167 | 0.257 | 0.278 | 0.379 | 0.406 | 0.54 | 0.371 | 0.587
17 | NCI-H727 | 0.322 | 0.545 | 0.347 | 0.287 | 0.468 | 0.639 | 0.821 | 0.617 | 0.494 | 0.685 | 0.669 | 0.671 | 0.605 | 0.56 | 0.645 | 0.516 | 0.545 | 0.38 | 0.276 | 0.227
18 | LCLC-97TM1 | 0.814 | 0.703 | 0.876 | 0.71 | 0.714 | 0.596 | 0.697 | 0.492 | 0.398 | 0.643 | 0.197 | 0.223 | 0.235 | 0.212 | 0.207 | 0.195 | 0.218 | 0.257 | 0.245 | –
19 | LU99A | 0.229 | 0.258 | 0.235 | 0.223 | 0.277 | 0.339 | 0.304 | 0.28 | 0.255 | 0.31 | 0.417 | 0.435 | 0.494 | 0.334 | 0.452 | 0.396 | 0.339 | 0.339 | 0.317 | 0.273
20 | NCI-H1651 | 0.809 | 0.893 | 0.919 | 0.744 | 0.804 | 0.659 | 0.684 | 0.731 | 0.691 | 0.661 | 0.522 | 0.538 | 0.534 | 0.466 | 0.547 | 0.547 | 0.673 | 0.495 | 0.511 | 0.509
21 | NCI-H322M | 0.889 | 0.901 | 0.912 | 0.744 | 0.814 | 0.557 | 0.562 | 0.645 | 0.544 | 0.64 | – | 0.516 | 0.446 | 0.434 | 0.499 | 0.518 | 0.572 | 0.526 | 0.524 | 0.585
22 | SK-LU-1 | 0.22 | 0.192 | – | 0.199 | 0.224 | 0.348 | 0.406 | – | 0.312 | 0.359 | 0.422 | 0.411 | 0.284 | 0.409 | 0.39 | 0.496 | 0.57 | 0.437 | 0.752 | 0.435
23 | ChaGo-K-1 | 0.573 | 0.467 | 0.64 | 0.497 | 0.76 | 0.521 | 0.613 | 0.577 | 0.42 | 0.547 | 0.951 | 0.968 | 0.921 | 0.921 | 0.898 | 0.593 | 0.809 | 0.938 | 0.704 | 0.552
24 | NCI-H1666 | 1.04 | 1.03 | 1.01 | 0.961 | 1.06 | 0.899 | 0.828 | 0.809 | 0.761 | 1.01 | 0.605 | 0.679 | 0.616 | 0.601 | 0.601 | 0.332 | 0.472 | 0.421 | 0.567 | –
25 | NCI-H2126 | 0.984 | 0.843 | 0.95 | 0.9 | 0.856 | 0.711 | 0.88 | 0.742 | 0.618 | 0.815 | 0.38 | 0.357 | 0.36 | 0.391 | 0.341 | 0.484 | 0.573 | 0.496 | 0.493 | 0.44

Reference: the supplement of paper PMC10307832
